The text below walks through data of article PMC6556873, “Rapid Covalent-Probe Discovery by Electrophile-Fragment Screening” (Journal of the American Chemical Society, 2019).

Read-outs that look alike come from different tables or passages of the source.

For series [1], the target named is T1, NUDT7 (Homo sapiens, UniProt P0C024).
T1 construct: residues 14-235, E. coli, pNIC28-Bsa4, N-terminal His6 tag removed by TEV, construct 26672 Da
Also on record: Intact protein LC/MS covalent labelling, fragments in pools of five, 200 uM each, 4 °C. As to conditions: 24 h, 4 °C, pool of five; 200 µM; covalent.

Series [2] has as its target T2, PCAF (Homo sapiens, UniProt Q92831).
T2 construct: gene KAT2B
Also on record: Intact protein LC/MS covalent labelling, fragments in pools of five, 200 uM each, 4 °C. As to conditions: 24 h, 4 °C, pool of five; 200 µM; covalent.

Series [3] concerns the target T3, NNMT (hNNMT) (Homo sapiens, UniProt P40261).
T3 construct: wild type, N-terminal His6 tag kept (no cleavage described), E. coli, construct 31248 Da
T3 sequence (P40261 1-264): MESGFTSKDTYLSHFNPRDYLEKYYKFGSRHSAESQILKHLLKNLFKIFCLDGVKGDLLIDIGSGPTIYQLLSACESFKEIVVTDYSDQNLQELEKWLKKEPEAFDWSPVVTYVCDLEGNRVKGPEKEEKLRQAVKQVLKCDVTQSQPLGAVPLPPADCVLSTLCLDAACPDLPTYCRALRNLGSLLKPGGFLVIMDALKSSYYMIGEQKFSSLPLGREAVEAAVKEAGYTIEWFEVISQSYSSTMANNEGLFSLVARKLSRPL
Also on record: Intact protein LC/MS covalent labelling, fragments in pools of five, 200 uM each, 4 °C. As to conditions: 24 h, 4 °C, pool of five; 200 µM; covalent.

Series [4] has as its target T4, BSA (Bos taurus, UniProt P02769).
T4 construct: gene ALB
Set-up: Intact protein LC/MS covalent labelling, fragments in pools of five, 200 uM each, 4 °C. As to conditions: 24 h, 4 °C, pool of five; 200 µM; covalent.

Series [5] concerns the target T5, OTUB2 (OTUB2A) (Homo sapiens, UniProt Q96DC9).
T5 construct: full length residues 1-234, E. coli BL21(DE3)-R3, His tag removed by TEV, construct 27312 Da
T5 sequence (Q96DC9 1-234): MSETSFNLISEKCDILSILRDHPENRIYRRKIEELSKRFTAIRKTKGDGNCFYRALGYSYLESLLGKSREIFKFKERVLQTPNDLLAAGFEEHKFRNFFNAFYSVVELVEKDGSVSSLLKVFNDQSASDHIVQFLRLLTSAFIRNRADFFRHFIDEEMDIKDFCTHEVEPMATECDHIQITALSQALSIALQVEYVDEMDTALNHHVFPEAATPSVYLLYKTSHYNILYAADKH
Set-up: Intact protein LC/MS covalent labelling, fragments in pools of five, 200 uM each, 4 °C. As to conditions: 24 h, 4 °C, pool of five; 200 µM; covalent.

The nature of series [6]: in vitro. Set-up: species or system HB2, CCD841. Conditions: human, hek293 cells.
The nature of series [7]: in vitro. As to conditions: human, hb2 cells, read-out: HB-2 Cells Viability (%). Also on record: species or system CCD841, HEK293.
Series [8] in a line: in vitro. Also on record: species or system HB2, HEK293. Conditions: human, ccd841 cells.

T2 sequence (Q92831 whole entry): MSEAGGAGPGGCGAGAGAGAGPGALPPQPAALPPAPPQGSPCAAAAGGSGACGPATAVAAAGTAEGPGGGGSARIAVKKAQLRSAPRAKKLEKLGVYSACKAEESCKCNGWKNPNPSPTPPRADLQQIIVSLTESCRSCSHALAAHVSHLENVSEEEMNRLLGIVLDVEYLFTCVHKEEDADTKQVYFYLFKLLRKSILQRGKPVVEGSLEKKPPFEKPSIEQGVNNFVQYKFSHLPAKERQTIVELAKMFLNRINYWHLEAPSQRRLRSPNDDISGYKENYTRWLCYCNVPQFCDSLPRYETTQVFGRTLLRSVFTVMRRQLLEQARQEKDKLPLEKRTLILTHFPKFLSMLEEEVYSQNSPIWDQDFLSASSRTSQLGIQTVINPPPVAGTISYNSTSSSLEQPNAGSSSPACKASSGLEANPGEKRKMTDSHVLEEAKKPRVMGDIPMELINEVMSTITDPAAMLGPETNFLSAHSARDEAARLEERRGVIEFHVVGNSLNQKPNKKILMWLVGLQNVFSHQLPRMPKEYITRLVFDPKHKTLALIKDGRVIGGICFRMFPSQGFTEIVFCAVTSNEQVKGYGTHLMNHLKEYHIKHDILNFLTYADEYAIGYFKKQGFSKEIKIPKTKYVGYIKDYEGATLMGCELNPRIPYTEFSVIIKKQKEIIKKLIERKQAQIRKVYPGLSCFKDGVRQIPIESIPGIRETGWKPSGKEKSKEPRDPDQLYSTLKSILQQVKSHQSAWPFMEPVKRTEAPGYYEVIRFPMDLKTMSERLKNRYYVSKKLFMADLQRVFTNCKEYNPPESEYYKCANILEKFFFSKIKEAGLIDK
T4 sequence (P02769 whole entry): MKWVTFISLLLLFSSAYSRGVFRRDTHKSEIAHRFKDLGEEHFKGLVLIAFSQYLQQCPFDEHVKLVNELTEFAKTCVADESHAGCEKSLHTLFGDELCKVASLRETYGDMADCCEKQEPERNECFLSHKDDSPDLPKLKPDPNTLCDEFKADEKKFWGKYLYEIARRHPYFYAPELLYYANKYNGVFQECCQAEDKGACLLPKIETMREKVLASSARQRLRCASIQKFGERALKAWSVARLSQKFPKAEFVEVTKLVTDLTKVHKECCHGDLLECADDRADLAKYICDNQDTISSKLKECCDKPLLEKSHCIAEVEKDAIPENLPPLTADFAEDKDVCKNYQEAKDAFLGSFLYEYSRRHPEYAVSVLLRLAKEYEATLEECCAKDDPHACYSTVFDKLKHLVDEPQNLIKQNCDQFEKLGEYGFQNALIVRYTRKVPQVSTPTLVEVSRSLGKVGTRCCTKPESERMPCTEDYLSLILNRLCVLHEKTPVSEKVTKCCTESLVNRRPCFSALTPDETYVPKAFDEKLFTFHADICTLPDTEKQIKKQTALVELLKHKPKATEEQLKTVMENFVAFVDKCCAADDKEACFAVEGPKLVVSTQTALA
T1 sequence (P0C024 14-235): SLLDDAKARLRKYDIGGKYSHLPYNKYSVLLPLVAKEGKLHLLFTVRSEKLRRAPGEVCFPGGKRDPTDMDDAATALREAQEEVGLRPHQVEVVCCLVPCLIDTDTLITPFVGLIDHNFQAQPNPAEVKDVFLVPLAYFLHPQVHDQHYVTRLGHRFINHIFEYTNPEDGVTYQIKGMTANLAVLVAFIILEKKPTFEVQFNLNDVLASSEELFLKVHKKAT

Usually viability stands for a read-out of living cells in per cent, often relative to untreated cells. `C=CC(=O)N1CC(S(=O)(=O)CC)C1` [PCM-0102442]: the NUDT7 in series [1] was 0. In series [2], this molecule displayed a PCAF of 0. The molecule also came in with an NNMT in series [3] of 0.14. The molecule also gave a BSA in series [4] of 0. In addition, in series [5], the OTUB2 came out at 0. Moreover, the values for the viability at 48 h, 10 µM in series [6], in series [7] and in series [8] were 77.7%, 94.8% and 100%, respectively.

`COc1ccc(C(=O)NC(=O)CCl)cc1` [PCM-0102454] showed an NUDT7 in series [1] of 0. This molecule also returned a PCAF in series [2] of 0. The molecule also displayed an NNMT in series [3] of 0.36. The molecule also displayed a BSA in series [4] of 0. In series [5], this molecule registered an OTUB2 of 0. Moreover, the viability at 48 h, 10 µM in series [6] amounted to 96.7%; in series [7], 97.1%; in series [8], 103%.

As for `O=C(CCl)Nc1nc2c(s1)CCC2` [PCM-0102457], the NUDT7 in series [1] stood at 0.37. In series [2], this molecule had a PCAF of 0. The molecule further registered an NNMT in series [3] of 0.59. Besides, the BSA in series [4] stood at 0. Further, the OTUB2 in series [5] amounted to 0. For the same molecule, the viability at 48 h, 10 µM was found to be 43.3% in series [6], 42.3% in series [7] and 61% in series [8].

In series [1], `O=C(CCl)Nc1nnc(-c2ccccc2)o1` [PCM-0102458] yielded an NUDT7 of 0. Further, the PCAF in series [2] was determined as 0. The molecule further yielded an NNMT in series [3] of 0.14. For the same molecule, in series [4], the BSA is on record as 0. Further, in series [5], the OTUB2 is reported as 0.08. The figures for the viability at 48 h, 10 µM in series [6], in series [7] and in series [8] were 104%, 97.2% and 98%, respectively.

In turn, `C=CC(=O)N1CCC(C(=O)O)(c2ccccc2)CC1` [PCM-0102459] displayed an NUDT7 in series [1] of 0. This molecule yielded a PCAF in series [2] of 0. The molecule also returned an NNMT in series [3] of 0. This molecule also displayed a BSA in series [4] of 0. This molecule displayed an OTUB2 in series [5] of 0. Besides, the viability at 48 h, 10 µM in series [6] stood at 110%; in series [7], 103%; in series [8], 98.8%.

As to `O=C(CCl)NC(=O)c1cccc([N+](=O)[O-])c1` [PCM-0102460], the NUDT7 in series [1] amounted to 0. Further, the PCAF in series [2] is 0. In series [3], this molecule registered an NNMT of 0.12. In series [4], this molecule yielded a BSA of 0. For the same molecule, in series [5], the OTUB2 was found to be 0. Also, the viability at 48 h, 10 µM in series [6] was determined as 117%; in series [7], 99.8%; in series [8] it was 95.9%.

The molecule `O=C(CCl)NC(=O)C1COc2ccccc2O1` (stereo not shown) [PCM-0102462] registered an NUDT7 in series [1] of 0. In series [2], this molecule gave a PCAF of 0. The NNMT in series [3] turned out to be 0. The molecule also yielded a BSA in series [4] of 0. The OTUB2 in series [5] is 0. Further, the viability at 48 h, 10 µM turned out to be 99.1% in series [6], 103% in series [7] and 102% in series [8].

In turn, `O=C(CCl)NC(=O)c1ccccc1Br` [PCM-0102464] registered an NUDT7 in series [1] of 0. This molecule returned a PCAF in series [2] of 0. The NNMT in series [3] turned out to be 0. In series [4], this molecule displayed a BSA of 0. This molecule also registered an OTUB2 in series [5] of 0. The figures for the viability at 48 h, 10 µM in series [6], in series [7] and in series [8] were 107%, 104% and 113%, respectively.

Turning to `C=CC(=O)N1CCC(CN)CC1.Cl` [PCM-0102467], the NUDT7 in series [1] amounted to 0. The PCAF in series [2] amounted to 0. In series [3], the NNMT was determined as 0. Further, the BSA in series [4] was determined as 0. The same molecule yielded an OTUB2 in series [5] of 0. Further, the viability at 48 h, 10 µM in series [6] was 91%; in series [7] it was 95.4%; in series [8], 105%.

In series [1], `O=C(CCl)N=c1sccn1Cc1ccccc1` [PCM-0102469] had an NUDT7 of 0. This molecule also showed a PCAF in series [2] of 0. Further, in series [3], the NNMT amounted to 0.25. Further, the BSA in series [4] was found to be 0. In series [5], this molecule yielded an OTUB2 of 0.11. The viability at 48 h, 10 µM stood at 7% in series [6], 42.3% in series [7] and 5.2% in series [8].

For the molecule `N#CCN(C(=O)CCl)c1ccccc1` [PCM-0102471], the NUDT7 in series [1] was 0. This molecule also displayed a PCAF in series [2] of 0. Besides, the NNMT in series [3] is 0.25. This molecule gave a BSA in series [4] of 0.18. Moreover, in series [5], the OTUB2 stood at 0.19. In addition, the viability at 48 h, 10 µM in series [6] is 16%; in series [7] it was 43.7%; in series [8], 24.4%.

As to `C=CC(=O)N1CCC2(CCN(C)C2=O)CC1` [PCM-0102475], the NUDT7 in series [1] is on record as 0. Also, in series [2], the PCAF is on record as 0. Also, the NNMT in series [3] stood at 0. Moreover, the BSA in series [4] amounted to 0. The OTUB2 in series [5] stood at 0. The viability at 48 h, 10 µM in series [6] came to 85.3%; in series [7], 94.8%; in series [8], 100%.

Molecule `O=C(CCl)N1CCNCC1.O=C(O)C(F)(F)F` [PCM-0102476] showed an NUDT7 in series [1] of 0. The molecule also yielded a PCAF in series [2] of 0. This molecule also came in with an NNMT in series [3] of 0. The same molecule showed a BSA in series [4] of 0. Also, in series [5], the OTUB2 is listed as 0. The figures for the viability at 48 h, 10 µM in series [6], in series [7] and in series [8] were 92.4%, 101% and 100%, respectively.

In series [1], `C=CC(=O)N1CCC(C(=O)Nc2cc(C)on2)CC1` [PCM-0102477] had an NUDT7 of 0. Further, the PCAF in series [2] came out at 0. In series [3], this molecule displayed an NNMT of 0. In series [4], this molecule showed a BSA of 0. Further, the OTUB2 in series [5] turned out to be 0. The viability at 48 h, 10 µM in series [6] was determined as 86.9%; in series [7] it was 99.4%; in series [8], 115%.

In series [1], `C=CC(=O)N1CCCC(n2nc(C)nc2C)C1` (stereo not shown) [PCM-0102479] registered an NUDT7 of 0. The PCAF in series [2] came out at 0. Also, the NNMT in series [3] is 0. In series [4], this molecule had a BSA of 0. This molecule returned an OTUB2 in series [5] of 0. Further, the viability at 48 h, 10 µM in series [6] was 98.5%; in series [7], 101%; in series [8] it was 111%.

In series [1], `C=CC(=O)N(C)C1CCCc2nc(CC)sc21` (stereo not shown) [PCM-0102483] had an NUDT7 of 0. This molecule also came in with a PCAF in series [2] of 0. Further, the NNMT in series [3] was found to be 0. In addition, the BSA in series [4] is 0. Moreover, the OTUB2 in series [5] amounted to 0. For the same molecule, the viability at 48 h, 10 µM in series [6] was 97.3%; in series [7] it was 98.1%; in series [8], 103%.

Molecule `C=CC(=O)N(C)C1CCCCNC1=O` (stereo not shown) [PCM-0102484] returned an NUDT7 in series [1] of 0. The same molecule showed a PCAF in series [2] of 0. In series [3], this molecule displayed an NNMT of 0. The molecule further returned a BSA in series [4] of 0. The molecule further showed an OTUB2 in series [5] of 0.11. For the same molecule, the viability at 48 h, 10 µM in series [6] was determined as 122%; in series [7], 95.7%; in series [8], 101%.

Molecule `C=CC(=O)NC(C)C(=O)N1CCc2ccccc21` (stereo not shown) [PCM-0102486] had an NUDT7 in series [1] of 0. Moreover, in series [2], the PCAF is recorded as 0. In addition, the NNMT in series [3] was found to be 0. Further, the BSA in series [4] is 0. The molecule also displayed an OTUB2 in series [5] of 0. Also, the viability at 48 h, 10 µM in series [6] was found to be 99%; in series [7], 99.8%; in series [8] it was 89.6%.

In the case of `C=CC(=O)N1CCC(CN2C(=O)CNC2=O)C1` (stereo not shown) [PCM-0102488], the NUDT7 in series [1] worked out at 0. Further, in series [2], the PCAF was found to be 0. In series [3], this molecule gave an NNMT of 0. In series [4], this molecule registered a BSA of 0. The molecule further had an OTUB2 in series [5] of 0. The values for the viability at 48 h, 10 µM in series [6], in series [7] and in series [8] were 100%, 96.6% and 114%, respectively.

For `C=CC(=O)N1CCNC(=O)C1c1c(F)cccc1Cl` (stereo not shown) [PCM-0102490], the NUDT7 in series [1] is given as 0. Besides, in series [2], the PCAF turned out to be 0. The NNMT in series [3] worked out at 0. The molecule further had a BSA in series [4] of 0. In addition, the OTUB2 in series [5] was 0. Besides, the results for the viability at 48 h, 10 µM in series [6], in series [7] and in series [8] were 104%, 98.5% and 95.5%, respectively.
